Values of other authors as cited in publication PMC11791199 (Scientific Reports, 2025).
Starred links: 1 amine or outer side, 2 acyl side, 3 side chain; linkers in the order of their positions; H or OH if unused. Positions of bridges follow the written chain, without caps; N, C: chain ends. Non-standard residues stand in square brackets, D forms with d. Residues, ends and D or L forms follow the SMILES beside them. *: point of attachment. Phe(3R-OH) = O=C([C@@H](N[*:1])[C@H](O[*:3])c1ccccc1)[*:2]; NMeTrp(4-OMe) = CN[C@@H](Cc1c[nH]c2cccc(OC)c12)C(=O)O; NMeaIle = CC[C@@H](C)[C@H](NC)C(=O)O; NMe2Val = CC(C)[C@@H](C(=O)*)N(C)C; NMeT = CN[C@H](C(=O)O)[C@@H](C)O; NMeL = CN[C@@H](CC(C)C)C(=O)O; NMeV = CN[C@H](C(=O)O)C(C)C

Assays:
Settings in all cases: cited from earlier work
[1] = biological target: ClpC1 (Mycobacterium tuberculosis, UniProt P9WPC9)
Chain of ClpC1 (P9WPC9 whole entry): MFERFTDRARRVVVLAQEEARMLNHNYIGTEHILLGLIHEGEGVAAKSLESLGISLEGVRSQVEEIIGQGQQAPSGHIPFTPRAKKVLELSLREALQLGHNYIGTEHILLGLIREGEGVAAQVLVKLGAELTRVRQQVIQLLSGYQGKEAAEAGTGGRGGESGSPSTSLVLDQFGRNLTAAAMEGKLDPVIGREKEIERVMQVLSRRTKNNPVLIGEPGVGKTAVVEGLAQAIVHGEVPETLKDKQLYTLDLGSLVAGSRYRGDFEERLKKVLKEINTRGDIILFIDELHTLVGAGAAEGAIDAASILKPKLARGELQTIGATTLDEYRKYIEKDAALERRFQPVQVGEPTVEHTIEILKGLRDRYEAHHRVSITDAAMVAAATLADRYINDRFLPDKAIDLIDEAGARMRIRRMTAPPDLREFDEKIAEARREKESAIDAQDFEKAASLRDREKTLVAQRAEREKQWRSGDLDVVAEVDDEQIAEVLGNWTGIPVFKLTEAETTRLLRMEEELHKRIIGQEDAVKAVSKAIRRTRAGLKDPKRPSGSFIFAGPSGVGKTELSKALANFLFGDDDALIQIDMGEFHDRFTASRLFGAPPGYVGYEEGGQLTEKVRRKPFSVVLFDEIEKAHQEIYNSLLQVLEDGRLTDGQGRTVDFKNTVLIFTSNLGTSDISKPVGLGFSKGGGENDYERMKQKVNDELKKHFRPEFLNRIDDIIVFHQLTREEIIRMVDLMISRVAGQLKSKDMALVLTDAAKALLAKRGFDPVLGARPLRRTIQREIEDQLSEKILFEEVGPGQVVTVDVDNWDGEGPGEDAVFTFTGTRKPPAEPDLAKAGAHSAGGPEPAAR

[2] = test system: tuberculosis
[3] = biological target: ClpC1P1P2 (Mycobacterium tuberculosis, UniProt P9WPC9)
Chain of ClpC1P1P2 (P9WPC9 whole entry): as above

[4] = biological target: ClpC1 NTD (Mycobacterium tuberculosis, UniProt P9WPC9)
Chain of ClpC1 NTD (P9WPC9 2-144): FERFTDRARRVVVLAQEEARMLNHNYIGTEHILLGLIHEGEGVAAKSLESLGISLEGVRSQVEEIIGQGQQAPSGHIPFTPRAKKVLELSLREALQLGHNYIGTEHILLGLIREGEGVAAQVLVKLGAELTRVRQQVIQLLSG

Row | Compound | effect on ATPase activity [1] | MIC value, times lower than that of rifampicin or isoniazid [2] | effect on FITC-casein degradation [3] | affinity for ClpC1-NTD [4]
1 | CC[C@@H](C)[C@@H](C(=O)N[C@@H]1C(=O)N(C)[C@@H]([C@@H](C)O)C(=O)N[C@@H](C(C)C)C(=O)N(C)[C@@H](CC(C)C)C(=O)N[C@@H](C(C)C)C(=O)N(C)[C@@H](C(C)C)C(=O)N(C)[C@@H](Cc2c[nH]c3cccc(OC)c23)C(=O)N[C@@H](C(C)C)C(=O)N[C@@H]([C@H](O)c2ccccc2)C(=O)N[C@@H](C(C)C)C(=O)O[C@@H]1C)N(C)C(=O)[C@@H](NC(=O)[C@H](C(C)C)N(C)C)C(C)C [ecumicin] (NMe2Val-V[NMeaIle]T[NMeT]V[NMeL]V[NMeV][NMeTrp(4-OMe)]V[Phe(3R-OH)]V; ester 3-C) | strong activator | 50 times | inhibitor | 
2 | cyclomarin | very modest effects |  | very modest effects | nM affinity
